Results from patent US6958318B2, “Recombinant bacterial cells for delivery of PNP to tumor cells” (The UAB Research Foundation, priority 1993, dated 2005).
Where “and” joins values, the source holds several entries; their conditions need not be identical. Identical values can stand only once. Like-named read-outs stand apart in the source and are kept apart here. Marks after values point to notes of the source that are not given here.

How the values were obtained:
[1] = Systemically administered dose response (toxicity) in mice; type: in vivo
Protocol: The formula of Freireich et al., Cancer Chemother. Rep., 50:219-244, (1966) can be used to determine the maximum tolerated dose of substrate for a human subject. […] This amount or slightly less should result in maximal effectiveness of tumor cell killing in humans without killing the subject. This standard of effectiveness is accepted in the field of cancer therapy. However, more preferred is a range of from about 10% to 1% of the maximum tolerated dosage (for example, 7.5 mg/m^2-0.75 mg/m^2). Furthermore, it is understood that modes of administration that permit the substrate to remain localized at or near the site of the tumor will be effective at lower doses than systemically administered substrates.

[2] = test system: 16/C-PNP tumors; test: E. coli PNP-transduced 16/C tumors in B6C3F1 mice; type: in vivo
Protocol: Transduced 16/C cells were implanted in mice by subcutaneous injection of approximately 10^6 cells harvested from the cultures of stably transduced 16/C cells described above. The mice were examined visibly for tumor growth and those with developing tumors were maintained. To prepare mice for use in the in vivo experiments, the tumors were removed from mice with significant tumor growth and cut into 30-60 mg pieces. One 30-60 mg piece of the tumor was subcutaneously implanted into the subaxillary region of each female B6C3F1 mouse. The tumors were allowed to develop and mice with tumors of 100 mm^3 were used.
Six mice per group with established PNP-transduced 16/C tumors were treated with aqueous control solution, MeP-dR or F-ara AMP, as above. […] (Table III, 16/C-PNP treatment.)

[3] = literature; cited from earlier work
[4] = target: T1, E. coli PNP (Escherichia coli, UniProt P0ABP8); type: biochemical
T1 sequence (P0ABP8 2-239): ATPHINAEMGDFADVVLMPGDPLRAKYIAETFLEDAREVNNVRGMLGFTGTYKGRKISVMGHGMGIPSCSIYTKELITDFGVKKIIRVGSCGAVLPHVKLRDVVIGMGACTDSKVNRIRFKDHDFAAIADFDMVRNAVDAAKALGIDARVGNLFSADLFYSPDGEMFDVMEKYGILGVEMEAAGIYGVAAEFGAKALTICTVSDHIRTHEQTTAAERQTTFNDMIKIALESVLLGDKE

[5] = test system: D54 glioma tumors; test: D54 tumors of mixed wild-type and transduced cells (80 to 20); conditions: in vivo
[6] = test system: HEp-2 cells; test: Toxicity to HEp-2 cells; type: cell-based
[7] = test system: Mel-1 melanoma cells; test: Killing of Mel-1 cells transfected with Tyr-PNP or SV-PNP; type: cell-based, human; conditions: 30 μg/ml, day 6
Description: To eliminate possible toxicity associated with the non-hydrolyzable cationic lipid component of the LipofectinJ, an alternative liposome transfection vehicle was used in the killing experiments. A liposome vehicle consisting of a 1:1 (weight/weight) mixture of the cationic lipid DOTAP (1,2-dioleoyloxy-3-(trimethylammonium)-propane) and the neutral lipid DOPE (dioleoyl-phosphatidylethanolamine) (Avanti Polar Lipids) display transfection properties similar to LipofectinJ, but with less toxicity (data not shown). DOTAP/DOPE liposomes were prepared by mixing 0.5 mg of DOTAP and 0.5 mg of DOPE and evaporating the chloroform solvent. Following the addition of 500 μl of cyclohexane, the mixture was placed on dry ice and lyophilized. One ml of sterile water was added to the powdered lipids and the solution was vortexed every 5 minutes for 30 minutes. T-84 or Mel-1 cells were seeded at 30% confluency in 24-well plates and allowed to grow overnight. […]
In cells that received the PNP or control plasmids, the media was changed two days after transfection and MeP-dR (6-methylpurine-deoxyriboside) added to the appropriate wells to a final concentration of 30 μg/ml. […] Two days later (day 6), the cells were washed once with PBS, resuspended, and counted in a 20% solution of trypan blue reagent (Trypan Blue Stain 0.4%, Gibco-BRL, Gaithersburg, Md.) using a hemacytometer. […]

[8] = target: T1, E. coli PNP
[9] = test system: Mel-1 cells; test: Wild type melanoma cell viability; type: cell-based, human; conditions: concentrations as high as 50 μg/ml, five days
[10] = test system: 16/C-PNP cells; test: 16/C-PNP tumors in athymic nude mice
[11] = test system: wild type murine breast carcinoma cells (16/C cell line); test: Wild-type 16/C tumors in nude mice; type: in vivo; conditions: FIG. 6
Protocol: For studies conducted with nu/nu mice, cells obtained from stable cultures of transduced cell lines were injected subcutaneously into the right or left flank of the mice. Mice with visible tumor growth were used for further studies. For the administration of purine prodrug, mice were administered MeP-dR or F-araAMP by IP injection.
Four to five nude (nu/nu) mice per group were inoculated with wild type murine breast carcinoma cells (16/C cell line), or PNP transduced 16/C cells. Mice with established tumors (approximately 100 mm^3) were treated with MeP-dR (100 mg/kg/d IP×3 d) or F-araAMP (100 mg/kg/IP 3 id×3 d).

[12] = test system: Lewis Lung tumors; test: Lewis Lung tumors treated with recombinant E. coli and MeP-dR
[13] = IP for three days, MeP-dR 100, F-araAMP 500 mg/kg/day
[14] = 67 mg/kg, IP Qd×3d plus recombinant E. coli

Cc1ncnc2c1ncn2[C@H]1C[C@H](O)[C@@H](CO)O1 [MeP-dR, 9-(β-D-2-deoxyerythropentofuranosyl)-6-methylpurine]
Toxicity in mice ([1]; 25 mg per kg per day for 9 days): some toxicity but no lethality | Human dosage (maximum tolerated dose) by formula of Freireich ([1]; 25 mg/kg×3): 75 mg/m^2 | Complete Regressions/Total [2, 13]: three of six and 3/6 | Day delay (Treated-control) [2, 13]: 5.4 days | Nonspecific Deaths/Total [2, 13]: 2/6**** | Delay in time for three tumor doublings, in words ([2]; p<0.01): statistically significant delay | Toxicity of prodrug relative to its purine analog [3]: much less toxic than their respective purine analogs | MeP-dR converted to MeP ([4]; extracts of E. coli PNP transfected T-84 cells, 100 μM, 24 hours, 25° C.): Approximately 24% | MeP-dR converted to MeP ([4]; extracts of LacZ transfected T-84 cells): no conversion occurred | Activity against tumors of wild-type and transduced cells at 80 to 20 [5]: less active | Fold less toxic than 6-methylpurine (MeP) [6]: 20 fold | Killing of Mel-1 cells transfected with SV-PNP [7]: susceptible to killing | Killing of Mel-1 cells transfected with Tyr-PNP [7]: susceptible to killing | Km [8]: 68 µM and 107 µM | Effect on Mel-1 cells [9]: unaffected | Tumor detection, early treatment group ([10]; 100 mg/kg IP days 1-4): none of the mice had any detectable tumor up to 18 days post engraftment | Deaths, early treatment group ([10]; 100 mg/kg IP days 1-4, n=4): two more died at day 20 | Survival, late treatment group ([10]; 100 mg/kg IP days 13, 14, 15): All of these animals survived for the complete experiment | Tumor size, late treatment group ([10]; 100 mg/kg IP days 13, 14, 15): did not increase in size after day 15 | Antitumor effect of MeP-dR on PNP-transduced 16/C tumors ([10]; days 13-15 or days 1-4): substantial antitumor effects | Effect on growth of wild-type 16/C tumors [11]: only a small effect on tumor growth | Delay of tumor growth ([12]; 33.5 mg/kg once a day for three days plus recombinant E. coli): approximately 42% | Host toxicity ([12]; 33.5 mg/kg plus recombinant E. coli): without host toxicity | Anti-tumor effect [12, 14]: anti-tumor effects were again observed | Host toxicity [12, 14]: toxic, with several deaths
